Paper PMC11474975, “Enzyme Dynamics Determine the Potency and Selectivity of Inhibitors Targeting Disease-Transmitting Mosquitoes” (ACS Infectious Diseases, 2024)
pIC50: −log10 of the molar value. Like-named read-outs stand apart in the source and are kept apart here.

Assays:
hAChE [1] = settings: taken from previous publications; cited from earlier work
hAChE [2] = test: hAChE inhibition, IC50; type: biochemical, Homo sapiens
mAChE [3] = target: T1, mAChE (Mus musculus, UniProt P21836); design: made in house; method as in PMID 30339371, PMID 27598521, PMID 22140425; settings: taken from previous publications; cited from earlier work
T1 sequence (P21836 32-614): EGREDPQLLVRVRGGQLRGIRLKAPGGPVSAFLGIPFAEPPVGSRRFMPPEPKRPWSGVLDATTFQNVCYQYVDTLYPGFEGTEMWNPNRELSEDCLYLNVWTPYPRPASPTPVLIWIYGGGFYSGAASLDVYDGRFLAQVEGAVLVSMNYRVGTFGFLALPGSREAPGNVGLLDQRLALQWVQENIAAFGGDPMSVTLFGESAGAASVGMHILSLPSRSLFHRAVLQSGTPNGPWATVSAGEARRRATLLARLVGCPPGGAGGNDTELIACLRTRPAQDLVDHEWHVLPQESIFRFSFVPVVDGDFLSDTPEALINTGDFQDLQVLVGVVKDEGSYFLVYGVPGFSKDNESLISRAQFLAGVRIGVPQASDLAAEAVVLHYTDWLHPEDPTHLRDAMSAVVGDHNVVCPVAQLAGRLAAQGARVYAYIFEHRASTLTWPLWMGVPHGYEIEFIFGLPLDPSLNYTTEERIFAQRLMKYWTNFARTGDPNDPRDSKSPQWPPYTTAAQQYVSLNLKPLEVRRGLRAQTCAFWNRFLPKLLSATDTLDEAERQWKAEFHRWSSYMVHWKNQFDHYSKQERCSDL

[4] = tested on: AChE1 from Anopheles gambiae (AgAChE1); settings: taken from previous publications; cited from earlier work
mAChE [5] = target: T1, mAChE; test: mAChE inhibition, IC50 (Ellman assay); settings: for S.R. (selectivity ratio) mAChE vs AgAChE1: IC50 mAChE / IC50 AgAChE1; for mAChE inhibitor class (Strong/Weak): class from experimental IC50
Experimental: Dilution series of eight concentrations were prepared (0.001–1000 and 0.1–1000 μM, respectively). Enzymatic activity was measured using the Ellman assay (adapted to a 96-well format) with secreted nonpurified protein in growth medium. A QIAgility robotic benchtop instrument (Qiagen) was used for automatic liquid handling when setting up assay plates. The assay was then performed at 30 °C in a final volume of 200 mL 0.1 M phosphate buffer (pH 7.4) containing 0.2 mM 5,5′-thiobis(2-nitrobenzoic acid) and 1 mM acetylcholine iodide. Changes in the wells’ absorbance at 412 nm were recorded over 60 s using a FlexStation 3 Multi-Mode Microplate Reader (Molecular Devices) to monitor the enzymatic reaction. Eight positive controls of uninhibited enzyme were assumed to represent 100% activity and used to determine the average slope. […] Nonlinear regression (curve fitting) in GraphPad Prism[54] was used to calculate IC50 values. The log[inhibitor] vs response variable slope equation was fitted using three parameters. Three independent replicates were used for the IC50 determination.

[6] = tested on: AChE1 from Anopheles gambiae (AgAChE1); test: AgAChE1 inhibition, IC50 (Ellman assay); type: biochemical; settings: class from experimental IC50

| SMILES | IC50 (hAChE [1]) | S.R. (selectivity ratio) hAChE vs AgAChE1 (hAChE [2]) | IC50 (mAChE [3]) | IC50 [4] | S.R. (selectivity ratio) mAChE vs AgAChE1 (mAChE [5]) | mAChE inhibitor class (Strong/Weak) (mAChE [5]) | AgAChE1 inhibitor class (Strong/Weak) [6] | pIC50 (mAChE [5]) |
| --- | --- | --- | --- | --- | --- | --- | --- | --- |
| CCN1CCN(C2CCN(C(=O)COc3ccc(-c4ccc(OC)cc4)cc3)CC2)CC1 [AL284] | 18 µM | 45 | 29 µM | 0.4 µM | 73 | Weak (strong and weak inhibitors of AgAChE1 from both classes (IC50 < 1 μM and IC50 > 5 μM, respectively) | Strong (strong and weak inhibitors of AgAChE1 from both classes (IC50 < 1 μM and IC50 > 5 μM, respectively) | – |
| COc1ccc(NC(=S)NCCN2CCC(C)CC2)cc1Cl [AL201] | 12 µM | 13 | – | 0.96 µM | 27 | Weak (strong and weak inhibitors of AgAChE1 from both classes (IC50 < 1 μM and IC50 > 5 μM, respectively) | Strong (strong and weak inhibitors of AgAChE1 from both classes (IC50 < 1 μM and IC50 > 5 μM, respectively) | 4.59 |
| O=C(COc1ccc(Cl)cc1Cl)Nc1ccc(CN2CCCCC2)cc1 [AL137] | – | – | – | 0.26 µM | – | – | Strong (strong and weak inhibitors of AgAChE1 from both classes (IC50 < 1 μM and IC50 > 5 μM, respectively) | – |
| O=C(COc1ccc(-c2ccccc2)cc1)NCCCN1CCCCC1 [AL264] | 57 µM | 6 | 61 µM | 10 µM | 6 | Weak (strong and weak inhibitors of AgAChE1 from both classes (IC50 < 1 μM and IC50 > 5 μM, respectively) | Weak (strong and weak inhibitors of AgAChE1 from both classes (IC50 < 1 μM and IC50 > 5 μM, respectively) | – |
| COc1ccccc1NC(=S)NCCN(C)C [AL237] | 120 µM | 17 | – | 7.1 µM | 31 | Weak (strong and weak inhibitors of AgAChE1 from both classes (IC50 < 1 μM and IC50 > 5 μM, respectively) | Weak (strong and weak inhibitors of AgAChE1 from both classes (IC50 < 1 μM and IC50 > 5 μM, respectively) | 3.66 |
